Assay results reported in patent US20250109127A1, “METHODS OF USE OF PHENOXYPROPYLAMINE COMPOUNDS TO TREAT DEPRESSION” (Minerva Neurosciences, Inc., priority 2013, published 2025).
Values joined by “and” are separate entries in the source; they are usually repeats but may differ in a detail not shown here. Equal entries are not always repeated. Structures can show the parent of a compound that is named as a salt.

System: norepinephrin release in the rat prefrontal cortex
Assay: Microdialysis: norepinephrine release in prefrontal cortex after I.P. administration
Format: in vivo
Conditions: for Norepinephrin release, MEAN / Norepinephrin release, individual animals: 3 mg/kg IP; for Norepinephrin release, MEAN: n = 8; for Norepinephrin release, individual animals: per animal R#15,16,21,22,27,28,09,10; for Norepinephrin release, individual animals / NOREPINEPHRIN in dialysate, individual animals: hydrochloride; for NOREPINEPHRIN in dialysate, individual animals: 0.1 mg/kg
Description: The aim of the study was to evaluate, using microdialysis, the effects of an intraperitoneal (I.P.) administration in rats of three different doses of SON-117 on dopamine and its metabolites, serotonin and its metabolite (5-HIAA), and norepinephrine levels in prefrontal cortex.
Thirty-two adult male Wistar rats were used for the whole study (4 groups of eight animals planned for the study, Table 1).
Surgery was performed on rats weighing about 300 g at the beginning of the experiments. Rats were anaesthetized with Ketamine (50 mg/kg) & Xylazine (15 mg/kg) by intramuscular administration. The animals were placed in a stereotaxic apparatus in the flat-skull position at a constant setting of −3.3 mm between ear bars and the incisor bar. The animals were treated with a local anesthesic (xylocaine 1%, Astra Zeneca) and an analgesic (Temgesic, from Schering Plough, 0.05 mg/kg, s.c.). A rostrocaudal midline incision was made with a lancet to expose the dorsal skull surface. The “stereotaxic zero” was defined by the Bregma in accordance with Paxinos and Watson's atlas (1986). A hole was drilled in the skull with a drill and the meninges were pierced with a sterile needle to implant a CMA12 guide cannula which later received the dialysis probe.
Coordinates used for implanting guide cannula in prefrontal cortex from Bregma were anteroposterior 3.7 mm, mediolateral 0.8 mm, and dorsoventral −2 mm (top of the probe was at −5 mm). The guide cannula was fixed to the skull with two stainless steel screws (1.88 mm outside diameter) anchored. An application of dental cement was added. A plastic collar allowed each animal to be tethered to a Swivel assembly of the CMA 120 awake animal system. Following surgery, rats were kept in individual cages and allowed to recover for a minimum of 3-5 days before the experimentation. The rats were handled and put in plastic bowl for 10 min at least every day to habituate the animals to their new environment for the dialysis. An I.P. administration with saline was also performed every day.
Dialysis probes (CMA12/3 mm, membrane, 20 kD cut-off, Carnegie Medicine, Stockholm, Sweden), were carefully washed before inserting into the guide cannula. The wash was performed with the artificial cerebrospinal fluid (aCSF) medium (NaCl 147 mM, KCl 2.7 mM, CaCl2 1.2 mM, MgCl2 0.85 mM) at room temperature. The dialysis system was then equilibrated at 20° C. at a perfusion rate of 1 μl/min with a Carnegie pump (CMA100). All catheters (FEP tubing, internal volume of 1.2 μl/10 cm, and tubing adaptors) used for microdialysis were treated in the same conditions.
The probes duly prepared were inserted into the guide cannula and the CMA120 Swivel assembly secured to the animal using a plastic collar. Flow through the dialysis probe with aCSF was maintained at a rate of 1 μl/min during the whole experimentation. The first four fractions (corresponding to 2 hours) were discarded to avoid the effects of parenchymal disturbance and to ensure that an approximate steady-state level was reached. Fractions were then collected over a period of 8.5 h during which time the animals remained quiet. The dialysates were automatically collected with an autosampler (microfraction collector CMA 140, Carnegie Medicin) and stored at −80° C. until analysis. […] Perfusion was then maintained for 7 hours with aCSF. The dialysates (30 μl) were collected into 300 μl vials, transferred into dry ice and then kept frozen (−80° C.) until analysis. Frozen samples were shipped to a partner for analysis. At the end of the microdialysis study, a PBS with colored ink was perfused through the probe in order to visualize the dialyzed area.
Catecholamine assay: Concentrations of dopamine, DOPAC, HVA, 5-HIAA, 5-HT, and norepinephrin were determined for each sample by HPLC coupled with electrochemical detection. […]

[1] = SON-117 0.1 mg/kg I.P., T0-T30 min
[2] = SON-117 0.1 mg/kg I.P., T30-T1 h

## Cc1nnc(-c2cc3c(OC[C@@H](O)CN4CCC(c5ccc(Cl)c(Cl)c5)CC4)cccc3o2)o1 [SON-117, (S)-1-(4-(3,4-dichlorophenyl)piperidino)-3-(2-(5-methyl-1,3,4-oxadiazol-2-yl)benzo(b)furan-4-yloxy)-2-propanol hydrochloride]
T3 h 30-T4 h
  Norepinephrin release, MEAN: 96.91 % of respective basal
  Norepinephrin release, individual animals: 92.25 % of respective basal and 96.09 % of respective basal and 81.54 % of respective basal and 98.50 % of respective basal and 84.78 % of respective basal and 103.12 % of respective basal and 98.12 % of respective basal and 120.87 % of respective basal
T3 h-T3 h 30
  Norepinephrin release, MEAN: 98.58 % of respective basal
  Norepinephrin release, individual animals: 105.14 % of respective basal and 113.23 % of respective basal and 79.41 % of respective basal and 94.38 % of respective basal and 76.17 % of respective basal and 100.68 % of respective basal and 93.69 % of respective basal and 125.93 % of respective basal
T4 h 30-T5 h
  Norepinephrin release, MEAN: 97.28 % of respective basal
  Norepinephrin release, individual animals: 58.60 % of respective basal and 125.43 % of respective basal and 101.68 % of respective basal and 87.38 % of respective basal and 80.27 % of respective basal and 104.69 % of respective basal and 112.63 % of respective basal and 107.59 % of respective basal
T4 h-T4 h 30
  Norepinephrin release, MEAN: 95.48 % of respective basal
  Norepinephrin release, individual animals: 62.13 % of respective basal and 91.42 % of respective basal and 88.64 % of respective basal and 99.58 % of respective basal and 82.26 % of respective basal and 99.52 % of respective basal and 111.02 % of respective basal and 129.30 % of respective basal
T5 h 30-T6 h
  Norepinephrin release, MEAN: 96.42 % of respective basal
  Norepinephrin release, individual animals: 82.50 % of respective basal and 100.18 % of respective basal and 65.95 % of respective basal and 85.98 % of respective basal and 75.91 % of respective basal and 86.97 % of respective basal and 139.22 % of respective basal and 134.66 % of respective basal
T5 h-T5 h 30
  Norepinephrin release, MEAN: 90.72 % of respective basal
  Norepinephrin release, individual animals: 87.73 % of respective basal and 105.81 % of respective basal and 60.65 % of respective basal and 89.96 % of respective basal and 73.79 % of respective basal and 96.43 % of respective basal and 137.91 % of respective basal and 93.51 % of respective basal
T6 h 30-T7 h
  Norepinephrin release, MEAN: 97.32 % of respective basal
  Norepinephrin release, individual animals: 66.13 % of respective basal and 133.14 % of respective basal and 93.99 % of respective basal and 95.87 % of respective basal and 77.85 % of respective basal
T6 h-T6 h 30
  Norepinephrin release, MEAN: 98.56 % of respective basal
  Norepinephrin release, individual animals: 78.64 % of respective basal and 120.89 % of respective basal and 90.25 % of respective basal and 94.88 % of respective basal and 80.09 % of respective basal and 93.58 % of respective basal and 131.29 % of respective basal
T-30 min-T0 (before administration)
  Norepinephrin release, MEAN: 97.42 % of respective basal
T-1 h 30-T-1 h (before administration)
  Norepinephrin release, MEAN: 102.02 % of respective basal
T-1 h-T-30 min (before administration)
  Norepinephrin release, MEAN: 100.56 % of respective basal
SON-117 0.1 mg/kg I.P.
  NE post injection levels vs mean pre-injection value: no statistically significant differences
[1]
  NOREPINEPHRIN in dialysate, MEAN: 82.85 % of respective basal
  NOREPINEPHRIN in dialysate, individual animals: 92.79 % of respective basal and 99.624 % of respective basal and 74.34 % of respective basal and 64.40 % of respective basal and 84.29 % of respective basal and 81.69 % of respective basal
[2]
  NOREPINEPHRIN in dialysate, MEAN: 95.58 % of respective basal
  NOREPINEPHRIN in dialysate, individual animals: 105.21 % of respective basal and 96.78 % of respective basal and 87.94 % of respective basal and 101.10 % of respective basal and 90.37 % of respective basal and 88.40 % of respective basal and 114.24 % of respective basal and 80.61 % of respective basal
SON-117 0.1 mg/kg I.P., T1 h 30-T2 h
  NOREPINEPHRIN in dialysate, MEAN: 81.28 % of respective basal
